# Assay results reported in patent publication US9255257B2, “PmST1 mutants for chemoenzymatic synthesis of sialyl lewis X compounds” (THE REGENTS OF THE UNIVERSITY OF CALIFORNIA, priority 2011, dated 2016).
# Target: Pasteurella multocida PmST1 mutant M144D of SEQ ID NO: 13 (M120D of Δ24PmST1, SEQ ID NO: 3) (Pasteurella multocida, UniProt Q15KI8, M144D)
# Experiment: α2-3-sialyltransferase activity, Le^xβMU as acceptor
# Assay type: biochemical
# Details: apparent, donor, Le^xβMU 1 mM, CAPSO pH 9.5, 37° C.
compound,measurement,value
CC(=O)N[C@H]1[C@H]([C@H](O)[C@H](O)CO)O[C@](OP(=O)(O)OC[C@H]2O[C@@H](n3ccc(N)nc3=O)[C@H](O)[C@@H]2O)(C(=O)O)C[C@@H]1O [CMP-Neu5Ac],kcat (CMP-Neu5Ac),0.59 ± 0.01 s⁻¹
